MIC data for seven molecules are collected here from PubChem BioAssay AID449774 (The Scripps Research Institute Molecular Screening Center, 2010).

Structures are written as SMILES. ≈ marks a conversion by molar mass, not a printed value.

The subject of this experiment is wildtype E. coli growth inhibition, MIC. In words: wildtype E. coli growth inhibition, late-stage follow-up, counter-screen for IMP-1/VIM-2 inhibitor project, MIC, dose response (AID 449774). Background: Counterscreens check selectivity or assay interference.
As for `COc1cccc[c]1[Hg+]`, the MIC was 0.78 µM.

On to `CC(=O)Nc1cc[c]([Hg+])cc1`, for which the minimal inhibitory concentration (MIC) is 1.56 µM.

As for `O=C(O)c1ccc[c]([Hg+])c1`, the MIC was 3.13 µM.

As for `O=C(O)c1cc[c]([Hg][Cl])cc1`, the MIC was 12.5 µM.

As to `[Hg+][c]1ccccc1`, the MIC is 0.39 µM.

Regarding `C[C@@H](O)[C@H]1C(=O)N2C(C(=O)O)=C(SCCN=CN)C[C@H]12`, the minimal inhibitory concentration (MIC) is 0.78 µM (≈ 0.233 µg/mL).

With `Cc1cc[c]([Hg+])cc1`, the minimum inhibitory concentration (MIC) is 1.56 µM.

For orientation: MIC means the smallest concentration in the dilution series that meets the test's criterion for growth inhibition.
